Measurements from ChEMBL document CHEMBL1133392, “Synthesis of a dihydroxythiophene analogue of catechosporines” (2000).
In brackets after ≈: the same amount, converted by molar mass.

Key:
Pseudomonas aeruginosa = test: In vitro for minimum inhibitory concentration against Pseudomonas aeruginosa (40 strains); type: functional
Staphylococcus aureus = test: In vitro minimum inhibitory concentration against Staphylococcus aureus (20 strains); type: functional

| MIC (Pseudomonas aeruginosa) | MIC (Staphylococcus aureus) | Compound |
| --- | --- | --- |
| 0.12 µg/mL (≈ 0.163 µM) | 3.6 µg/mL (≈ 4.89 µM) | N#Cc1ccc(C(O/N=C(\C(=O)N[C@@H]2C(=O)N3C(C(=O)[O-])C(/C=C/C[n+]4cccc5ccsc54)CS[C@H]23)c2csc(N)n2)C(=O)O)c(O)c1O (stereo partly drawn) |
| 0.06 µg/mL (≈ 0.0815 µM) | 1.4 µg/mL (≈ 1.9 µM) | N#Cc1cc(C(O/N=C(\C(=O)N[C@@H]2C(=O)N3C(C(=O)[O-])C(/C=C/C[n+]4cccc5ccsc54)CS[C@H]23)c2csc(N)n2)C(=O)O)cc(O)c1O (stereo partly drawn) |
| 3.12 µg/mL (≈ 4.38 µM) | 0.92 µg/mL (≈ 1.29 µM) | Nc1nc(/C(=N/OC(C(=O)O)c2cc(O)c(O)cn2)C(=O)N[C@@H]2C(=O)N3C(C(=O)[O-])C(/C=C/C[n+]4cccc5ccsc54)CS[C@H]23)cs1 (stereo partly drawn) |
| 38 µg/mL (≈ 51.6 µM) | 0.17 µg/mL (≈ 0.231 µM) | N#Cc1sc(C(O/N=C(\C(=O)N[C@@H]2C(=O)N3C(C(=O)[O-])C(/C=C/C[n+]4cccc5ccccc54)CS[C@H]23)c2csc(N)n2)C(=O)O)c(O)c1O (stereo partly drawn) |
